Measured values taken from patent US20260234112A1, “COMPOUNDS, COMPOSITIONS, AND METHODS OF USE THEREOF” (Type6 Therapeutics, Inc., priority 2023, published 2026).

Each compound was assayed against T1, Cdk2(2-298) (Homo sapiens, UniProt P24941) (assay: Surface Plasmon Resonance (SPR) compound interaction, Biacore 8K). Settings: single-cycle kinetics (SCK, "S"), dissociation 1800 sec, read-out: Activity rating (KD).
T1 construct: Biotinylated N-terminal avi-tagged Cdk2(2-298) or Cdk1(1-297) was immobilized
Assay type: binding
Experimental: Compound interaction was profiled using a Biacore 8K instrument (Cytiva). Biotinylated N-terminal avi-tagged Cdk2(2-298) or Cdk1(1-297) was immobilized on a series S sensor Chip SA at a capture level between 2500 RU and 3000 RU (Cdk2) or 7000 RU (Cdk1) in buffer (25 mM HEPES, 150 mM NaCl, 0.05% Tween20, pH 7.5). A compound dilution plate (8 concentrations, 3-fold dilution) in DMSO was prepared (100× assay concentration). From this plate, compound DMSO stock solution was transferred into buffer, yielding a final DMSO concentration of 1% in assay. The remaining buffer was supplemented with 1% DMSO. Compounds were injected in a series of increasing concentrations in multi-cycle kinetics (MCK, “M”) or single-cycle kinetics (SCK, “S”) mode at a flow rate of 30 μl/min for 120 sec and dissociation was profiled for 180 sec (MCK) or 1800 sec (SCK). Data were analysed using Biacore Insight Evaluation Software (Cytiva).

Kd [nM] | SMILES
≤ 10 | C=Cc1ccccc1S(=O)(=O)Nc1ccc(Oc2ccncc2-c2ccnc(N[C@H]3CC[C@H](N)CC3)n2)c(F)c1 [Compound 33, N-[4-[[3-[2-(1r,4r)[(4-Aminocyclohexyl)amino]pyrimidin-4-yl]-4-pyridyl]oxy]-3-fluoro-phenyl]-2-ethenylbenzenesulfonamide]
11 to 100 | Cc1ccc(C#N)cc1S(=O)(=O)Nc1ccc(Oc2ccncc2-c2ccnc(N[C@H]3CC[C@H](N)CC3)n2)c(F)c1 [Compound 35, N-(4-((3-(2-(((1r,4r)-4-aminocyclohexyl)amino)pyrimidin-4-yl)pyridin-4-yl)oxy)-3-fluorophenyl) 5-cyano-2-methylbenzenesulfonamide]
> 5000 | N[C@H]1CC[C@H](Nc2nccc(-c3cnccc3Oc3ccc(NS(=O)(=O)C4CC4)cc3F)n2)CC1 [Compound 36, N-[4-[[3-[2-[(1r,4r)(4-Aminocyclohexyl)amino]pyrimidin-4-yl]-4-pyridyl]oxy]-3-fluorophenyl] cyclopropanesulfonamide]
11 to 100 | N[C@H]1CC[C@H](Nc2nccc(-c3cnccc3Oc3ccc(NS(=O)(=O)c4ccccc4)cc3F)n2)CC1 [Compound 37, N-[4-[[3-[2-[(1r,4r)(4-Aminocyclohexyl)amino]pyrimidin-4-yl]-4-pyridyl]oxy]-3-fluorophenyl] benzenesulfonamide]
100 to 1000 | NC(=O)c1ccc(S(=O)(=O)Nc2ccc(Oc3ccncc3-c3ccnc(N[C@H]4CC[C@H](N)CC4)n3)c(F)c2)cc1 [Compound 38, 4-(N-(4-((3-(2-(((1r,4r)-4-aminocyclohexyl)amino)pyrimidin-4-yl)pyridin-4-yl)oxy)-3-fluorophenyl)sulfamoyl) benzamide]
1000 to 5000 | N[C@H]1CC[C@H](Nc2nccc(-c3cnccc3Oc3ccc(NS(=O)(=O)C4CCC4)cc3F)n2)CC1 [Compound 39, N-[4-[[3-[2-[(1r,4r)(4-Aminocyclohexyl)amino]pyrimidin-4-yl]-4-pyridyl]oxy]-3-fluorophenyl]cyclobutanesulfonamide]
1000 to 5000 | CS(=O)(=O)Nc1ccc(Oc2ccncc2-c2ccnc(N[C@H]3CC[C@H](N)CC3)n2)c(F)c1 [Compound 40, N-(4-((3-(2-(((1r,4r)-4-aminocyclohexyl)amino)pyrimidin-4-yl)pyridin-4-yl)oxy)-3-fluorophenyl) methanesulfonamide]
100 to 1000 | N[C@H]1CC[C@H](Nc2nccc(-c3cnccc3Oc3ccc(NS(=O)(=O)c4ccc5c(c4)OCO5)cc3F)n2)CC1 [Compound 41, N-[4-[[3-[2-[(1r,4r)(4-aminocyclohexyl)amino]pyrimidin-4-yl]-4-pyridyl]oxy]-3-fluorophenyl]1,3-benzodioxol-5-ylsulfonamide]
11 to 100 | COc1ccc(S(=O)(=O)Nc2ccc(Oc3ccncc3-c3ccnc(N[C@H]4CC[C@H](N)CC4)n3)c(F)c2)c(C)c1C [Compound 43, N-[4-[[3-[2-[(1r,4r)(4-aminocyclohexyl)amino]pyrimidin-4-yl]-4-pyridyl]oxy]-3-fluorophenyl] 4-methoxy-2,3-dimethyl-benzenesulfonamide]
1000 to 5000 | N[C@H]1CC[C@H](Nc2nccc(-c3cnccc3Oc3ccc(NS(=O)(=O)Cc4ccccc4)cc3F)n2)CC1 [Compound 44, N-[4-[[3-[2-[(1r,4r)(4-Aminocyclohexyl)amino]pyrimidin-4-yl]-4-pyridyl]oxy]-3-fluorophenyl] phenylmethanesulfonamide]
> 5000 | N[C@H]1CC[C@H](Nc2nccc(-c3cnccc3Oc3ccc(NS(=O)(=O)C4CC4)c(Cl)c3)n2)CC1 [Compound 50, N-[4-[[3-[2-[(1r,4r)(4-Aminocyclohexyl)amino]pyrimidin-4-yl]-4-pyridyl]oxy]-2-chlorophenyl] cyclopropanesulfonamide]
≤ 10 | N[C@H]1CC[C@H](Nc2nccc(-c3cnccc3Oc3ccc(NS(=O)(=O)c4ccccc4Br)cc3F)n2)CC1 [Compound 53, N-[4-[[3-[2-[(1r,4r)(4-Aminocyclohexyl)amino]pyrimidin-4-yl]-4-pyridyl]oxy]-3-fluorophenyl] 2-bromobenzenesulfonamide]
11 to 100 | Cc1ccccc1S(=O)(=O)Nc1ccc(Oc2ccncc2-c2ccnc(N[C@H]3CC[C@H](N)CC3)n2)c(F)c1 [Compound 54, N-[4-[[3-[2-[(1r,4r)(4-Aminocyclohexyl)amino]pyrimidin-4-yl]-4-pyridyl]oxy]-3-fluorophenyl] 2-methylbenzenesulfonamide]

The next lines start with the compound.

SMILES | Kd [nM]
O=S(=O)(Nc1ccc(Oc2ccncc2-c2ccnc(N[C@H]3CCCNC3)n2)c(F)c1)c1ccccc1Cl [Compound 34, N-[3-Fluoro-4-[[3-[2-[[(3S)-3-piperidyl]amino]pyrimidin-4-yl]-4-pyridyl]oxy]phenyl] 2-chlorobenzenesulfonamide] | ≤ 10
N[C@H]1CC[C@H](Nc2nccc(-c3cnccc3Oc3ccc(NS(=O)(=O)c4cccc5cccnc45)cc3F)n2)CC1 [Compound 42, N-[4-[[3-[2-[(1r,4r)(4-aminocyclohexyl)amino]pyrimidin-4-yl]-4-pyridyl]oxy]-3-fluorophenyl]quinoline-8-sulfonamide] | 100 to 1000
Cc1cc2cc(S(=O)(=O)Nc3ccc(Oc4ccncc4-c4ccnc(N[C@H]5CC[C@H](N)CC5)n4)c(F)c3)ccc2[nH]1 [Compound 45, N-[4-[[3-[2-[(1r,4r)(4-aminocyclohexyl)amino]pyrimidin-4-yl]-4-pyridyl]oxy]-3-fluorophenyl] 2-methyl-1H-indole-5-sulfonamide] | > 5000
N[C@H]1CC[C@H](Nc2nccc(-c3cnccc3Oc3ccc(NS(=O)(=O)c4ccccc4)c(F)c3)n2)CC1 [Compound 46, N-[4-[[3-[2-[(1r,4r)(4-Aminocyclohexyl)amino]pyrimidin-4-yl]-4-pyridyl]oxy]-2-fluorophenyl] benzenesulfonamide] | 100 to 1000
N[C@H]1CC[C@H](Nc2nccc(-c3cnccc3Oc3cc(Cl)c(NS(=O)(=O)c4ccccc4Cl)cc3F)n2)CC1 [Compound 47, N-[4-[[3-[2-[(1r,4r)(4-Aminocyclohexyl)amino]pyrimidin-4-yl]-4-pyridyl]oxy]-2-chloro-5-fluorophenyl] 2-chlorobenzenesulfonamide] | ≤ 10
N[C@H]1CC[C@H](Nc2nccc(-c3cnccc3Oc3cc(Cl)c(NS(=O)(=O)c4ccccc4)cc3F)n2)CC1 [Compound 48, N-[4-[[3-[2-[(1r,4r)(4-Aminocyclohexyl)amino]pyrimidin-4-yl]-4-pyridyl]oxy]-2-chloro-5-fluorophenyl] benzenesulfonamide] | 11 to 100
N[C@H]1CC[C@H](Nc2nccc(-c3cnccc3Oc3cc(Cl)c(NS(=O)(=O)Cc4ccccc4)cc3F)n2)CC1 [Compound 49, N-[4-[[3-[2-[(1r,4r)(4-Aminocyclohexyl)amino]pyrimidin-4-yl]-4-pyridyl]oxy]-2-chloro-5-fluorophenyl] phenylmethanesulfonamide] | 100 to 1000
N[C@H]1CC[C@H](Nc2nccc(-c3cnccc3Oc3ccc(NS(=O)(=O)Cc4ccccc4)c(Cl)c3)n2)CC1 [Compound 51, N-[4-[[3-[2-[(1r,4r)(4-Aminocyclohexyl)amino]pyrimidin-4-yl]-4-pyridyl]oxy]-2-chlorophenyl] phenylmethanesulfonamide] | 1000 to 5000
N[C@H]1CC[C@H](Nc2nccc(-c3cnccc3Oc3ccc(NS(=O)(=O)c4ccccc4)c(Cl)c3F)n2)CC1 [Compound 52, N-[4-[[3-[2-[(1r,4r)(4-Aminocyclohexyl)amino]pyrimidin-4-yl]-4-pyridyl]oxy]-2-chloro-3-fluorophenyl] benzenesulfonamide] | 11 to 100
